Paper PMC10709440, “High-throughput ligand profile characterization in novel cell lines expressing seven heterologous insect olfactory receptors for the detection of volatile plant biomarkers” (Scientific Reports, 2023)
Where two headings read alike, the source gives them in different places.

Key:
[1] = molecular target: T1, Drosophila OR10a (Drosophila melanogaster, UniProt Q9VYZ1); test: Calcium ion fluorescence (GCaMP6) assay, OR10a stable HEK293 cell line; type: cell-based; design: key to DF norm AVERAGE OR10a: VOC ∆F divided by the plate's mean ∆F response to 50 µM VUAA1; conditions: for DF norm AVERAGE OR10a: threshold 0.05, below shown as 0; for OR10a response (VUAA1-normalized) at 1 μM / OR10a response (VUAA1-normalized) at 10 μM / OR10a response (VUAA1-normalized) at 100 μM: OR10a cell line
T1 construct: expressed in transfected cells
T1 sequence (Q9VYZ1 1-406): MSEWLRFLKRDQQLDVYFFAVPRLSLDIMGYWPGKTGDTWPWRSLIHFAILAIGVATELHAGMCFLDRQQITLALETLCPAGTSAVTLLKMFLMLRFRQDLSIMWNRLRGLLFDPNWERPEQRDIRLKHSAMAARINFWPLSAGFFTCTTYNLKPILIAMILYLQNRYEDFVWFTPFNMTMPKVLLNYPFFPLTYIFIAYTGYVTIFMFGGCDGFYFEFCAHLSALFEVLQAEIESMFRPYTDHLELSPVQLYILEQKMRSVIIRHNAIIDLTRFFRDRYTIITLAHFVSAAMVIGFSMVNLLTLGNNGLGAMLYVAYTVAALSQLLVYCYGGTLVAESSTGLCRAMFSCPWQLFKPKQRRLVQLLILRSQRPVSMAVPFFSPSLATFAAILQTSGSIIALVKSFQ
T1 sequence (Q9VNB5 1-486 partner): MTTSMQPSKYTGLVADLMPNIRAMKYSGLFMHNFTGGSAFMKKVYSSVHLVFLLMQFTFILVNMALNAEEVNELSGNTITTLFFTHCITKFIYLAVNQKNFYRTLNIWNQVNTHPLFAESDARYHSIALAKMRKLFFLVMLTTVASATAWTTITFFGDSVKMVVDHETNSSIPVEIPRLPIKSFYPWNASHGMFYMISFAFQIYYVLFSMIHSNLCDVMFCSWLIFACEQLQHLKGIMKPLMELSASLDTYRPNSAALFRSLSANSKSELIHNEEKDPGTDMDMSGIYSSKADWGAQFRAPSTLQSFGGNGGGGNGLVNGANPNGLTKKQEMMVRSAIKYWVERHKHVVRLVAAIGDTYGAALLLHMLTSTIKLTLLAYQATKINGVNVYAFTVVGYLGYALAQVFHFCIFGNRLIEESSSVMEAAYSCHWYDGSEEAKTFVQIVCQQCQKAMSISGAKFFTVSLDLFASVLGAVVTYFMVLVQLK
In short: (§1)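 Responses are VUAA1-normalized ΔF: each VOC-evoked calcium signal, (FMAX−F0)/F0 over 30 s after injection, divided by the same line's mean 50 µM VUAA1 response. Cells were doxycycline-induced HEK293 with GCaMP6 and the cognate Drosophila OR, in HEPES buffer pH 7.3; ligands tested 0.01–100 μM.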

[2] = molecular target: T2, Drosophila OR85b (Drosophila melanogaster, UniProt Q9VHQ7); test: Calcium ion fluorescence (GCaMP6) assay, OR85b stable HEK293 cell line; type: cell-based; design: key to DF norm AVERAGE OR85b: VOC ∆F divided by the plate's mean ∆F response to 50 µM VUAA1; conditions: for activation at 1 µM / activation at 10 µM / activation at 100 µM: HEK293, read-out: OR85b response (VUAA1-normalized response); for Average response / OR85b response (VUAA1-normalized) at 1 μM / OR85b response (VUAA1-normalized) at 10 μM / OR85b response (VUAA1-normalized) at 100 μM: OR85b cell line; for Average response: VUAA1-normalized response, mean of biological replicates; for DF norm AVERAGE OR85b: threshold 0.05, below shown as 0
T2 construct: expressed in transfected cells
T2 sequence (Q9VHQ7 1-390): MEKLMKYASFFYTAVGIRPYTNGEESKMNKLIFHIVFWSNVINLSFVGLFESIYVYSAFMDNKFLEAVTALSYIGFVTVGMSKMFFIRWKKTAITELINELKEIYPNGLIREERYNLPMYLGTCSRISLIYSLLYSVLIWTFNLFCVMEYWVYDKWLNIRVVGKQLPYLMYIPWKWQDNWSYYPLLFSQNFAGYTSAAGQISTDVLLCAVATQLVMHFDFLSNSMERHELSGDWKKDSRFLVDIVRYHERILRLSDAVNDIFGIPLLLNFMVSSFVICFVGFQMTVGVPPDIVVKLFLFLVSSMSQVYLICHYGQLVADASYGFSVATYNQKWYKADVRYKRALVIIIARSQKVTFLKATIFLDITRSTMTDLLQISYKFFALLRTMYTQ
T2 sequence (Q9VNB5 1-486 partner): T1 sequence (Q9VNB5 1-486 partner)
In short: as §1

[3] = HEK293, 1 μM VOC, 50 μM VUAA1 = 1, responses not exceeding 0.05 considered 0, read-out: OR10a Average response (VUAA1-normalized)
[4] = HEK293, 10 μM VOC, 50 μM VUAA1 = 1, responses not exceeding 0.05 considered 0, read-out: OR10a Average response (VUAA1-normalized)
[5] = HEK293, 100 μM VOC, 50 μM VUAA1 = 1, responses not exceeding 0.05 considered 0, read-out: OR10a Average response (VUAA1-normalized)
[6] = HEK293, read-out: OR10a response (VUAA1-normalized response), VOC concentration 1 μM
[7] = HEK293, read-out: OR10a response (VUAA1-normalized response), VOC concentration 10 μM
[8] = HEK293, read-out: OR10a response (VUAA1-normalized response), VOC concentration 100 μM
[9] = ligand concentration 1 (unit not given)
[10] = ligand concentration 10 (unit not given)
[11] = ligand concentration 100 (unit not given)
[12] = HEK293, read-out: OR10a Average response (VUAA1-normalized)
[13] = HEK293, read-out: OR10a response (VUAA1-normalized response)
[14] = HEK293, read-out: OR10a Average response (VUAA1-normalized), 1 μM VOC, 50 μM VUAA1 = 1, responses not exceeding 0.05 considered 0
[15] = HEK293, read-out: OR10a Average response (VUAA1-normalized), 10 μM VOC, 50 μM VUAA1 = 1, responses not exceeding 0.05 considered 0
[16] = HEK293, read-out: OR10a Average response (VUAA1-normalized), 100 μM VOC, 50 μM VUAA1 = 1, responses not exceeding 0.05 considered 0

Row | Structure (SMILES) | activation at 1 µM [1, 3] | activation at 10 µM [1, 4] | activation at 100 µM [1, 5] | activation at 1 µM [1, 6] | activation at 10 µM [1, 7] | activation at 100 µM [1, 8] | DF norm AVERAGE OR10a [1, 9] | DF norm AVERAGE OR10a [1, 10] | DF norm AVERAGE OR10a [1, 11] | activation at 1 µM [2] | activation at 10 µM [2] | activation at 100 µM [2] | Average response ([2]; cc. 1 µM) | Average response ([2]; cc. 10 µM) | Average response ([2]; cc. 100 µM) | DF norm AVERAGE OR85b [2, 9] | DF norm AVERAGE OR85b [2, 10] | DF norm AVERAGE OR85b [2, 11] | further results
1 | CCCCCC(=O)OCC [ethyl hexanoate] | 6% | 3% | 8.51% | 6% | 0% | 8.51% | 0.06289 | 0 | 0.08508 | 0% | 0% | 0% | 0.00 | 0.05 | 0.0232 | 0 | 0 | 0 | 
2 | CCOC(=O)CC [ethyl propionate] | 1.56% | 1.89% | 0% | 0% | 0% | 0% | 0 | 0 | 0 | 0% | 0% | 9% | 0.00 | 0.037 | 0.09 | 0 | 0 | 0.09327 | 
3 | CCc1ccccc1 [ethylbenzene] |  |  |  |  |  |  | 0.1713 | 0 | 0.05742 | 0% | 0% | 0% | 0.00719 | 0.00 | 0.00 | 0 | 0 | 0 | activation at 1 µM [1, 12]: 17%; activation at 10 µM [1, 12]: 3.3%; activation at 100 µM [1, 12]: 6%; activation at 1 µM [1, 13]: 17%; activation at 10 µM [1, 13]: 0%; activation at 100 µM [1, 13]: 6%
4 | C=CCc1ccc(O)c(OC)c1 [eugenol] | 8.49% | 6% | 0% | 8.49% | 6% | 0% | 0.08485 | 0.05743 | 0 | 0% | 0% | 9% | 0.00 | 0.0188 | 0.09 | 0 | 0 | 0.09022 | 
5 | CC(=O)OCC(C)C [isobutyl acetate] |  |  |  | 6.57% | 0% | 18% | 0.06574 | 0 | 0.1821 | 0% | 0% | 0% | 0.044 | 0.00 | 0.03 | 0 | 0 | 0 | activation at 1 µM [1, 14]: 7%; activation at 10 µM [1, 15]: 5%; activation at 100 µM [1, 16]: 18%
6 | CC(=O)OCCC(C)C [isopentyl acetate] | 9% | 19% | 10% | 9% | 19% | 10% | 0.08825 | 0.1921 | 0.101 | 0% | 7% | 0% | 0.00 | 0.07 | 0.0239 | 0 | 0.07146 | 0 | 
7 | C=C(C)[C@H]1CC=C(C)CC1 [limonene] |  |  |  |  |  |  | 0 | 0 | 0.05729 |  |  |  | 0.07 | 0.09 | 0.0644 | 0.07022 | 0.08814 | 0.06443 | OR10a Average response (VUAA1-normalized) ([1]; 1 μM VOC, 50 μM VUAA1 = 1, responses not exceeding 0.05 considered 0): 0.00; OR10a Average response (VUAA1-normalized) ([1]; 10 μM VOC, 50 μM VUAA1 = 1, responses not exceeding 0.05 considered 0): 0.00; OR10a Average response (VUAA1-normalized) ([1]; 100 μM VOC, 50 μM VUAA1 = 1, responses not exceeding 0.05 considered 0): 0.06; OR10a response (VUAA1-normalized response) ([1]; VOC concentration 1 μM): 0.00; OR10a response (VUAA1-normalized response) ([1]; VOC concentration 10 μM): 0.00; OR10a response (VUAA1-normalized response) ([1]; VOC concentration 100 μM): 0.06; OR85b response (VUAA1-normalized response) ([2]; VOC concentration 1 μM): 0.07; OR85b response (VUAA1-normalized response) ([2]; VOC concentration 10 μM): 0.09; OR85b response (VUAA1-normalized response) ([2]; VOC concentration 100 μM): 0.0644
8 | C=CC(C)(O)CCC=C(C)C (stereo not drawn) [linalool] | 2% | 7% | 0% |  |  |  | 0 | 0.06934 | 0 |  |  |  | 0.045 | 0.00 | 0.06 | 0 | 0 | 0.06299 | OR10a response (VUAA1-normalized) at 1 μM ([1]; VOC concentration 1 μM): 0.00; OR10a response (VUAA1-normalized) at 10 μM ([1]; VOC concentration 10 μM): 0.07; OR10a response (VUAA1-normalized) at 100 μM ([1]; VOC concentration 100 μM): 0.00; OR85b response (VUAA1-normalized) at 1 μM ([2]; VOC concentration 1 μM): 0.00; OR85b response (VUAA1-normalized) at 10 μM ([2]; VOC concentration 10 μM): 0.00; OR85b response (VUAA1-normalized) at 100 μM ([2]; VOC concentration 100 μM): 0.06
9 | Cc1cccc(C)c1 [m-xylene] |  |  |  |  |  |  | 0 | 0 | 0 |  |  |  | 0.023 | 0.00 | 0.09 | 0 | 0 | 0.08801 | activation at 1 µM [1, 14]: 0%; activation at 10 µM [1, 15]: 0%; activation at 100 µM [1, 16]: 2%; OR10a response (VUAA1-normalized) at 1 μM ([1]; VOC concentration 1 μM): 0.00; OR10a response (VUAA1-normalized) at 10 μM ([1]; VOC concentration 10 μM): 0.00; OR10a response (VUAA1-normalized) at 100 μM ([1]; VOC concentration 100 μM): 0.00; OR85b response (VUAA1-normalized) at 1 μM ([2]; VOC concentration 1 μM): 0.00; OR85b response (VUAA1-normalized) at 10 μM ([2]; VOC concentration 10 μM): 0.00; OR85b response (VUAA1-normalized) at 100 μM ([2]; VOC concentration 100 μM): 0.09
